Measurements taken from patent US8846747B2, “Compounds and methods for altering lifespan of eukaryotic organisms” (University of Rochester, priority 2009, dated 2014).

Legend:
DeaD strain BB579 = experiment: yeast Death of Daughters (DeaD) lifespan assay, reversal of nicotinamide (NAM) lifespan shortening; type: cell-based, S. cerevisiae (yeast); conditions: for average improvement, 250 nM to 1μM: fold improvement in DeaD lifespan (OD600 at 60 h normalized to no drug control), compound 250 nM to 1μM; for average improvement, 250 nM to 1μM / fold induction at 0.125 µM / average improvement, 0.5 to 100 nM: 0.75 mM NAM; for EC50 / fold induction at 0.125 µM: Saccharomyces cerevisiae; for EC50: BB579, read-out: C50 (concentration that yields half the maximal activity) by DeaD assay; for fold induction at 0.125 µM: BB579, compound 125 nM; for fold induction at 0.125 µM / average improvement, 0.5 to 100 nM: fold improvement in DeaD lifespan; for average improvement, 0.5 to 100 nM: compound 0.5 to 100 nM
Description: The C50 (50% maximal activity) is a measure of the efficacy of a compound as a LAC and is determined by quantifying the dose-response curve for each LAC by DeaD assay in the presence and absence of nicotinamide. The C50 is the concentration of LAC that yields half the maximal activity. Dose response curves will generally peak and then decline. The decline is most likely due to toxicity at higher LAC concentrations. The C50 is determined relative to the maximal lifespan extension (the peak value). C50 values are provided for C1-5.
The compounds listed in Table 1 of Example 3 were assessed for their anti-aging activities using the yeast Death of Daughters (DeaD) explicative lifespan assay. Specifically, the compounds were assessed for their capacity to reverse the lifespan shortening effect of exogenous nicotinamide (NAM), which is a known inhibitor of the anti-aging protein Sir2p (Anderson et al., 2003; Bitterman et al., 2002). These compounds were compared to the activities of known cluster 1 compounds, S3-5, and #3-11.
“Activity” here is defined herein as the fold improvement in DeaD lifespan in the presence of 0.75 mM NAM relative to lifespan in the absence of cluster 1 compounds, over a range of compound concentrations between 0.5 nm-1 μm. This “activity” value is a means of assessing the usefulness of a compound as a LAC. The assays were performed as follows. DeaD strain BB579 was grown overnight in a permissive (galactose-containing) medium to mid-log phase, and then diluted to an OD600 of 0.0001 in restrictive (glucose-containing) medium with 0.75 mM NAM and the compound to be tested. Cells were then incubated at 30° C. for 3 days, with shaking and OD600 measurement every 20 minutes. The OD600 reading after 60 hours in restrictive medium, normalized to the same measurement for the “no drug” control, was used as the number for comparison.
Five of the compounds with higher activity than S3-5 were selected for further study and were designated C1-1, C1-2, C1-3, C1-4, and C1-5 (see Table 2, Example 4). All data in FIGS. 1A(1)-(6) are from media containing 0.75 mM NAM. Note the different ranges of the X axes in FIGS. 1A(1)-(6)—very different C50 values for the compounds of the present invention compared the known C1 cluster compounds. […] All five had C50 values below 50 nM, while the C50 value for S3-5 was about 650 nM, and the C50 for S1-9 was about 350 nM.

[1] = system: strain FY839 (healthy wild-type); experiment: Toxicity of compounds by yeast growth assay; type: cell-based; conditions: FY839, inset in FIG. 2
Description: The toxicity of compounds C1-1, C1-2, C1-3, C1-4, and C1-5 in yeast was assessed by determining their effects on growth of a wild-type yeast strain. FIG. 2 is a graphical representation of the toxicity data. The yeast used was strain FY839 (healthy wild-type) growing in SCD. At 12 hours all were in log phase. […] This concentration is many-fold higher than the effective concentrations of these compounds as assessed by DeaD lifespan assays.

RAW 264.7 cells = experiment: LPS-induced TNF-α secretion from RAW 264.7 cells (ELISA); type: cell-based, murine; conditions: compound 1 micromolar, LPS 10 ng/ml for 6 hrs; FIG. 3
Description: FIG. 3. […] To obtain the data summarized in FIG. 3, RAW […] cells were incubated with Scrims (compounds of present invention) (1 uM), PI3K inhibitor positive control (LY-294002; 25 uM) or vehicle (DMSO) for 1 hr. LPS (10 ng/ml) was added to the medium. 6 hrs post LPS administration medium was collected and analyzed for TNFa levels using ELISA.
In vitro anti-inflammatory activity in RAW 264.7 cells (murine leukaemic monocyte macrophage cell line): Lipopolysaccharide (LPS)-induced secretion of cytokines from RAW cells is a recognized in vitro assay for anti-inflammatory drugs. The anti-inflammatory activities of C1-1, C1-2, C1-3, C1-4, and C1-5 in the RAW cell model. RAW cells exposed to LPS were incubated with each of the five molecules at 1 micromolar concentration. The PIK3 inhibitor LY-294002 was used at 25 micromolar as a positive control. […] LPS was administered at 10 ng/ml for 6-hrs. TNF-α levels were quantified by ELISA assay. Results are presented as % of control with standard deviations of three replicates.

Structure (SMILES)	average improvement, 250 nM to 1μM (DeaD strain BB579)	fold induction at 0.125 µM (DeaD strain BB579)	other results
CCCC(=O)C1C(=O)C(C(C)=O)C(=O)CC1CC(C)CCC (stereo not shown) [#3-11, reference compound]	1.30	–	–
CCC(=O)C1C(=O)CC(C2CCCCC2)CC1=O (stereo not shown) [SRI# 22788, 1,3-cyclohexanedione, 2-propanoyl-5-cyclohexyl-]	–	–	EC50 (DeaD strain BB579): < 50 nM; toxic effects on growth at concentrations below 1 μM [1]: little or no toxic effects on growth; reduction of secreted TNF-α relative to vehicle treated cells (RAW 264.7 cells): exhibited anti-inflammatory activity
CC(=O)C1C(=O)CC(c2cccs2)CC1=O (stereo not shown) [SRI# 22933, 1,3-cyclohexanedione, 2-acetyl 5-[thien-2-yl]-]	–	–	EC50 (DeaD strain BB579): < 50 nM; toxic effects on growth at concentrations below 1 μM [1]: little or no toxic effects on growth; reduction of secreted TNF-α relative to vehicle treated cells (RAW 264.7 cells): exhibited anti-inflammatory activity
CCCCC1CC(=O)C(C(C)=O)C(=O)C1 (stereo not shown) [SRI# 22942, 1,3-cyclohexanedione, 2-acetyl-5-butyl-]	–	–	EC50 (DeaD strain BB579): < 50 nM; toxic effects on growth at concentrations below 1 μM [1]: little or no toxic effects on growth; reduction of secreted TNF-α relative to vehicle treated cells (RAW 264.7 cells): exhibited anti-inflammatory activity
CCC(=O)C1C(=O)CC(C2CC3C=CC2C3)CC1=O (stereo not shown) [SRI# 22965, 1,3-cyclohexanedione, 2-propanoyl-5-[bicyclo[2.2.1]hept-2-en-5-yl]-]	–	–	EC50 (DeaD strain BB579): < 50 nM; reduction of secreted TNF-α relative to vehicle treated cells (RAW 264.7 cells): exhibited anti-inflammatory activity
CCC(=O)C1C(=O)CC(C2CCCCC2)CC1=O (stereo not shown) [compound 22788]	2.74	3.4	average improvement, 0.5 to 100 nM (DeaD strain BB579): 1.75
CCC(=O)C1C(=O)CC(c2c(F)cccc2Cl)CC1=O (stereo not shown) [compound 22789]	2.62	2.61	average improvement, 0.5 to 100 nM (DeaD strain BB579): 1.30
CCC(=O)C1C(=O)CC(c2ccc(F)cc2)CC1=O (stereo not shown) [compound 22790]	2.64	2.85	average improvement, 0.5 to 100 nM (DeaD strain BB579): 1.37
CCC(=O)C1C(=O)CC(c2ccco2)CC1=O (stereo not shown) [compound 22791]	2.15	1.77	–
COc1cc(OC)c(C2CC(=O)C(C(=O)C3CC3)C(=O)C2)c(OC)c1 (stereo not shown) [compound 22821]	1.62	1.27	–
Cc1ccc(C2CC(=O)C(C(=O)C3CC3)C(=O)C2)cc1 (stereo not shown) [compound 22824]	1.42	1.32	–
O=C1CC(c2ccc(F)cc2)CC(=O)C1C(=O)C1CC1 (stereo not shown) [compound 22835]	2.21	2.48	–
CC(C)C(=O)C1C(=O)CC(c2ccc(F)cc2)CC1=O (stereo not shown) [compound 22837]	1.72	–	–
CC(=O)C1C(=O)CC(c2ccc(Cl)cc2Cl)CC1=O (stereo not shown) [compound 22840]	1.87	2.24	–
O=C1CC(C2CCCCC2)CC(=O)C1C(=O)c1ccccc1 (stereo not shown) [compound 22845]	2.11	1.99	–
CC(=O)C1C(=O)CC(c2c(F)cccc2Cl)CC1=O (stereo not shown) [compound 22847]	2.17	3.25	–
CC(=O)C1C(=O)CC(c2ccco2)CC1=O (stereo not shown) [compound 22848]	1.58	–	–
CC(=O)C1C(=O)CC(c2ccc(F)cc2)CC1=O (stereo not shown) [compound 22850]	1.59	–	–
CC(=O)C1C(=O)CC(C2CC3C=CC2C3)CC1=O (stereo not shown) [compound 22856]	2.18	3.18	–
O=C1CC(c2ccccc2)CC(=O)C1C(=O)C1CC1 (stereo not shown) [compound 22878]	2.11	2.62	–
CC(C)C(=O)C1C(=O)CC(c2ccccc2)CC1=O (stereo not shown) [compound 22880]	1.59	1.49	–

Structure (SMILES)	average improvement, 250 nM to 1μM (DeaD strain BB579)	fold induction at 0.125 µM (DeaD strain BB579)	other results
O=C1CC(c2ccc(Cl)cc2Cl)CC(=O)C1C(=O)C1CC1 (stereo not shown) [compound 22889]	1.64	–	–
CC(C)C(=O)C1C(=O)CC(c2ccc(Cl)cc2Cl)CC1=O (stereo not shown) [compound 22890]	1.46	–	–
O=C1CC(c2cccs2)CC(=O)C1C(=O)C1CC1 (stereo not shown) [compound 22897]	1.85	1.25	–
CC(C)C(=O)C1C(=O)CC(c2cccs2)CC1=O (stereo not shown) [compound 22898]	1.37	–	–
CCCCCCC1CC(=O)C(C(C)=O)C(=O)C1 (stereo not shown) [compound 22926]	1.87	0.99	–
CCCCCCC1CC(=O)C(C(=O)CC)C(=O)C1 (stereo not shown) [compound 22927]	1.43	–	–
CCC(=O)C1C(=O)CC(c2cccs2)CC1=O (stereo not shown) [compound 22930]	2.33	2.21	–
CC(=O)C1C(=O)CC(C(C)C)CC1=O (stereo not shown) [compound 22931]	2.09	1.86	–
CCC(=O)C1C(=O)CC(C(C)C)CC1=O (stereo not shown) [compound 22932]	1.80	1.76	–
CC(=O)C1C(=O)CC(c2cccs2)CC1=O (stereo not shown) [compound 22933]	2.55	2.71	average improvement, 0.5 to 100 nM (DeaD strain BB579): 1.70
CC(=O)C1C(=O)CC(c2ccc3c(c2)OCO3)CC1=O (stereo not shown) [compound 22935]	1.51	–	–
CCC(=O)C1C(=O)CC(c2ccc3c(c2)OCO3)CC1=O (stereo not shown) [compound 22936]	1.46	–	–
CC(=O)C1C(=O)CC(c2cn(C)c3ccccc23)CC1=O (stereo not shown) [compound 22939]	1.60	–	–
CCC1CC(=O)C(C(C)=O)C(=O)C1 (stereo not shown) [compound 22941]	1.62	–	–
CCCCC1CC(=O)C(C(C)=O)C(=O)C1 (stereo not shown) [compound 22942]	2.49	2.87	average improvement, 0.5 to 100 nM (DeaD strain BB579): 1.71
CCCCC1CC(=O)C(C(=O)CC)C(=O)C1 (stereo not shown) [compound 22943]	2.33	2.79	–
CCCCCC1CC(=O)C(C(C)=O)C(=O)C1 (stereo not shown) [compound 22944]	2.28	2.72	average improvement, 0.5 to 100 nM (DeaD strain BB579): 1.21
CCCCCC1CC(=O)C(C(=O)CC)C(=O)C1 (stereo not shown) [compound 22945]	2.54	1.96	–
CCCC(=O)C1C(=O)CC(c2cn(C)c3ccccc23)CC1=O (stereo not shown) [compound 22947]	1.64	–	–
CCC(=O)C1C(=O)CC(C2CC3C=CC2C3)CC1=O (stereo not shown) [compound 22965]	2.57	3.65	average improvement, 0.5 to 100 nM (DeaD strain BB579): 1.72
